SMILES | melting point [°C]
O=c1ccn(C2CC(O)C(CNC(c3ccccc3)(c3ccccc3)c3ccccc3)O2)c(=O)[nH]1 (stereo not given) | 132 to 134
CCOC(=O)CC(=O)Nc1cccc(F)c1CO | 91
O=C(Nc1ccc(C(F)(F)F)cc1)C1=NN(c2ccc(Cl)cc2)C(c2ccco2)C1 (stereo not given) | 167 to 171
Cc1ccc(OCc2sccc2S(=O)(=O)Nc2onc(C)c2Br)cc1 | 128 to 130
Cc1ccc(S(=O)(=O)NCC(=O)NCc2ccc(C(c3cc(F)ccc3F)S(=O)(=O)c3ccc(Cl)cc3)nc2)cc1 (stereo not given) | 217 to 218
Clc1ccccc1C=C(Cn1cncn1)C1(Cl)CC1 | 82 to 85
CCOC(=O)c1cn(C2CC2)c2cc(N3C[C@@H](C)N[C@@H](C)C3)c(F)c(N)c2c1=O | 194 to 196
CC(=O)Nc1cccc(NC(=O)c2cccc(S(=O)(=O)N3CCCCCC3)c2)c1 | 117 to 120
COc1ccc(C(C)C)cc1-c1cc(C(=O)NC2CCN(C(=O)OC(C)(C)C)C2)c(OCc2ccccc2)cc1OCc1ccccc1 (stereo not given) | 151 to 154
C=C(C)C(=O)OC(COc1ccc(C(=O)c2ccccc2)c(O)c1)COc1ccc(C(=O)c2ccccc2)c(O)c1 | 138 to 139
NC(=O)c1ccc2cc(Nc3ccc(O)cc3)ccc2c1 | 260
Cc1c(Cc2cccc(C(F)(F)F)c2)sc2c(-c3cccc(C(N)=O)c3)cccc12 | 190 to 191
Cc1nc(N2CCN(CC3CC3)C2=O)sc1C(=O)NCc1ccc(F)cc1 | 146 to 147
O=C(NP(=O)(O)CCc1ccccc1)OCc1ccccc1 | 110
FC(F)(F)c1cc(-c2ccc(Br)cc2)nc2c(-c3ccncc3)cnn12 | 289
Fc1cc(F)c(-c2ccccc2)c(F)c1F | 86 to 88
CCCCCCCCCCCCCCCCCC(=O)c1cc(C(=O)O)ccc1O | 170
CC(=O)Nc1ccc(S(=O)(=O)Nc2nnc(C)s2)cc1 | 239 to 240
O=c1c2c(Cc3ccccc3)n[nH]c2c2ccccc2n1-c1ccccc1 | 255 to 257
CC=Cc1cccc(Oc2ccccc2Cl)c1OC | 61 to 62
Clc1cc(COCc2cc(Cl)nc(Cl)c2)cc(Cl)n1 | 69.1
Cc1cc(-c2ccc(C(F)(F)F)cc2)nc(-c2ccnc(-c3cccc(S(N)(=O)=O)c3)c2)n1 | 218
CC(C)Cc1nc2c(N)nc3ccccc3c2s1 | 123 to 125
COc1ccnc(CN2C(=O)C(NC(=O)Nc3cccc(C)c3)N=C(c3ccccc3F)c3ccccc32)c1 (stereo not given) | 195 to 200

SMILES | melting point [°C]
O=c1cc(Oc2ccccc2)c(-c2nc[nH]n2)cn1-c1ccccc1 | 275 to 276
COC(=O)c1cc(O)cc2cc(-c3ccc(O)cc3)oc12 | 236 to 238
O=C1CC[C@H](COC(c2ccccc2)(c2ccccc2)c2ccccc2)N1CCCc1ccccc1 | 109
O=C(O)CCCCN1C(=O)c2ccc([N+](=O)[O-])cc2C1=O | 172
Cn1ccnc1C(O)(c1ccccc1)c1ccc(Cl)cc1 (stereo not given) | 185 to 186
CCOCc1nc2c(N)nc3cc(OCc4csc(-c5cccs5)n4)ccc3c2n1CC(C)(C)O | 192 to 194
O=C1C=CC(O)(c2cccc3ccccc23)C=C1 | 117 to 118
CCCc1c(OCCCOc2ccc(C(=O)CCCCC(=O)O)cc2F)ccc(C(C)=O)c1O | 106 to 107
CCCCCCCCCC(=O)c1ccc(O)c(C(=O)O)c1 | 118 to 119
O=C(Nc1ccc(N2CC(F)(F)C2)nc1)c1cc2cc(C(F)(F)F)cnc2n1Cc1cccc(F)c1 | 222 to 224
CN(O)C(=O)C=Cc1ccc2ccccc2c1 | 138 to 140
O=[N+]([O-])c1ccccc1N1CCc2cc(Cl)ccc21 | 85 to 89
CSC(=NCCSCc1csc(NC(=N)N)n1)NC#N | 127 to 134
Cc1ccc(Nc2nnc(Cc3ccncc3)c3ccccc23)cc1 | 152 to 153
Nc1cccc(Cn2c(-c3ccccc3)ccc2-c2ccccc2)n1 | 143 to 144
O=c1[nH]c2ccc(CCN3CCN(c4ccc5ncccc5c4)CC3)cc2o1 | 200
CC(C)C(NC(=O)OC(C)(C)C)N1CC(NC(=O)Cc2ccccc2)C1=O (stereo not given) | 64 to 66
Cc1nc(COc2ccc3c(c2)[C@H](O)[C@H](Cc2cccnc2)CO3)ccc1Br (relative stereo) | 134 to 137
O=c1ccc(Oc2ccc([N+](=O)[O-])cc2)c[nH]1 | 214 to 217
COc1cccc(C(=O)Nc2c[nH]nc2C(=O)NCCC#N)c1 | 118 to 121
Cc1ccccc1C(=O)Nc1ccc(C(=O)N2CCS(=O)(=O)c3ccccc32)cc1 | 219 to 220
O=S1(=O)N=C(NCC2CCCCC2)Nc2cc(Cl)ccc21 | 317 to 323
N#CNC(=NCCc1ccccc1Cl)c1cncc(NCc2ccccc2)c1 | 146
O=C(NCc1ccccc1)C1Cc2cc(Br)cc3[nH]c(=O)c(=O)n1c23 (stereo not given) | 152 to 153

SMILES | melting point [°C]
COC(=O)c1c(S(N)(=O)=O)c(C)nn1-c1ccccn1 | 170 to 172
O=C1c2ccccc2C(=O)N1Cc1ccc(C2=COC(c3cc(Cl)cc(Cl)c3)(C(F)(F)F)C2)cc1Cl (stereo not given) | 99.7
COc1cc(OC)nc(Oc2cccc3c2C(=O)OC3OC(C)=O)n1 (stereo not given) | 119 to 120
c1ccc(N(Cc2cccc3ccccc23)c2ccccc2)cc1 | 170 to 172
CCOC(=O)c1nc(-c2ccc(OC)cc2)oc1C | 74 to 76
CN(C)c1nc(CSCCNC2=NS(=O)N=C2N)cs1 (stereo not given) | 116 to 122
N#CCCN1CCCCC1=Nc1ccccc1N1CCOCC1 | 148
NC(=NO)c1ccno1 | 146 to 148
COc1ccccc1-c1ccc(C(=O)N2Cc3ccc(C(=O)O)n3Cc3ccccc32)cc1C | 133 to 135
CCOP(=O)(/C=C/C=C/c1cn(-c2ccccc2)nc1OCc1ccc(OCc2nc(-c3ccco3)oc2C)c(OC)c1)OCC | 143 to 144
CCSC1CCC(=O)N1 (stereo not given) | 65 to 68
Cc1ccc(Sc2ccc(N)cc2)cc1 | 76
Nc1cccc(Oc2ccc(C(=O)c3cccc(N)c3)cc2)c1 | 48 to 52
CCOCc1nc2c(N)nc3cc(-c4ccsc4)ccc3c2n1CC(C)(C)O | 204 to 205
C=CCOC(=O)c1cc(OCC=C)c(OCC=C)c(S(C)(=O)=O)c1 | 78 to 80
CN1CCN(C(=O)c2ccc([N+](=O)[O-])cc2[N+](=O)[O-])CC1 | 130 to 132
COCCn1nc2c(N)nc3ccccc3c2c1CC(C)(C)C(N)=O | 225 to 226
Cc1sc2c(Br)c3ccccc3c(-c3ccc(O)cc3)c2c1C | 165 to 168
CCCCCCCCOc1ccc(C=[N+]([O-])C(C)(C)C)c(F)c1 | 35.6
Cc1[nH]c(=S)n(Nc2ccc(F)cc2)c1-c1ccccc1 | 228
CN(C)C=C(C#N)C(=O)c1c[nH]c2ccccc12 | 187 to 188
CS(=O)(=O)Nc1cc(C(c2cc(F)ccc2F)S(=O)(=O)c2ccc(Cl)cn2)c(Cl)cn1 (stereo not given) | 214 to 216

— a melting point compilation (Tetko et al.; mined from patent text by program, amines drawn as free bases though some values may be those of a salt)
